Molecular target: T1, CMMBP (CmmC) (Arthrobacter globiformis, UniProt D2YYD8)
T1 construct: N-terminal 6xHis tag, pET-28b (NdeI/BamHI), E. coli Rosetta2 (DE3); structure domains span residues 31-421; tag cleavage not mentioned
T1 sequence (D2YYD8 26-421): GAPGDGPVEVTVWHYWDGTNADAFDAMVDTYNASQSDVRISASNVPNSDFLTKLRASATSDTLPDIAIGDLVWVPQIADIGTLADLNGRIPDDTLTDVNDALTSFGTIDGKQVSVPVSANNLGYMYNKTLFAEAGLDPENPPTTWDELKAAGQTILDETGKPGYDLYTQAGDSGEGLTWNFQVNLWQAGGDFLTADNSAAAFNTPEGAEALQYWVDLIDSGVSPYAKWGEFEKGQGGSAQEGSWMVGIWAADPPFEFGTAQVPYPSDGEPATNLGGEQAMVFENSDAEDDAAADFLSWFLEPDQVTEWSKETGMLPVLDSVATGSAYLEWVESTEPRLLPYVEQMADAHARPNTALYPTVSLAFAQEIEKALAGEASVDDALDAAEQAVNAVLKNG
Assay: isothermal titration calorimetry
Format: binding

SMILES | Ka (×10^8 M^-1) (20 mM Tris-HCl pH 8.0, 25 °C, one-site model, printed in parentheses as not reliable (weak affinity, low c value)) | Kd [nM]
OC[C@H]1O[C@H](O[C@H]2[C@H](O)[C@@H](O)[C@@H](OC[C@H]3O[C@H](O[C@H]4[C@H](O)[C@@H](O)C(O)O[C@@H]4CO)[C@H](O)[C@@H](O)[C@@H]3O)O[C@@H]2CO)[C@H](O)[C@@H](O)[C@@H]1O (stereo partly drawn) [MM, α-maltosyl-(1→6)-maltose] | (0.0022 ± 0.0014) × 10^8 | 
OC[C@H]1O[C@@H]2OC[C@H]3O[C@H](O[C@H]4[C@H](O)[C@@H](O)[C@@H](OC[C@H]5O[C@H](O[C@H]1[C@H](O)[C@H]2O)[C@H](O)[C@@H](O)[C@@H]5O)O[C@@H]4CO)[C@H](O)[C@@H](O)[C@@H]3O [CMM, cyclo-{→6}-α-D-Glcp-(1→4)-α-D-Glcp-(1→6)-α-D-Glcp-(1→4)-α-D-Glcp-(1→)] |  | 9.6
